Experimental data reported in US8865714B2, “Piperazine compound capable of inhibiting prostaglandin D synthase” (Taiho Pharmaceutical Co., Ltd., priority 2009, dated 2014).

Biological target: human H-PGDS (Homo sapiens (Human), UniProt O60760)
Assay: Hematopoietic prostaglandin D synthase (H-PGDS) inhibiting action
Type: biochemical
Details: human H-PGDS, [14C] prostaglandin H2 10 μM; for H-PGDS inhibition rate (%) / inhibition at 0.1 µM: compound at 0.1 μM, relative to the control group; for IC50: read-out: IC50; for inhibition at 0.1 µM: read-out: H-PGDS inhibition rate (%)
Experimental: More specifically, the reaction mixture (49 μL) containing 100 mM Tris-HCl (pH 8.0), 1 mM reduced glutathione, 0.1 mg/mL γ-globulin, and human H-PGDS (q.s.), and a compound (final concentration: 0.01-100 μM) was preincubated at 25° C. for 5 minutes. Note that a DMSO solution (final concentration: 1%) was added to the solvent control group. Subsequently, 1 μL of [14C] prostaglandin H2 (final concentration: 10 μM) was added to start the reaction. One minute after the start of the reaction, 250 μL of a reaction stopper solution (diethylether/methanol/1 M citric acid (30/4/1) at a temperature of −20° C. was added to stop the reaction. After the reaction was stopped, 50 μL of the upper layer portion (organic solvent phase) was applied to a TLC plate and developed at −20° C. for 45 minutes (developing solvent: diethylether/methanol/acetic acid (90/2/1)). After drying the TLC plate, the TLC plate was exposed to an imaging plate for 1 to 24 hours, and the radioactivity corresponding to prostaglandin D2 (PGD2) was analyzed using an image analyzer (produced by Fujifilm Corporation).

Chain of human H-PGDS (O60760 whole entry): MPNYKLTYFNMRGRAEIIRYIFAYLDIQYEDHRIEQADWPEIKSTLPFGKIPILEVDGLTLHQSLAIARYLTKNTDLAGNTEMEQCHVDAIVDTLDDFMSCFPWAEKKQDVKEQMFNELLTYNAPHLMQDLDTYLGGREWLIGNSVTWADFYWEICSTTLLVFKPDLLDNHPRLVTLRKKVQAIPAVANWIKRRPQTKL

| inhibition at 0.1 µM | Compound | H-PGDS inhibition rate (%) | IC50 |
| --- | --- | --- | --- |
|  | 4-((1-ethylpyrrol-2-yl)-carbonyl)-N-(4-(4-morpholin-1-yl-carbonylpiperidin-1-yl)-phenyl)-1-piperazinecarboxamide [Example 13] | 51.8% | 91 nM |
|  | 4-((1-methylindol-2-yl)-carbonyl)-N-(4-(4-morpholin-1-yl-carbonylpiperidin-1-yl)-phenyl)-1-piperazinecarboxamide [Reference Example 12] | −0.4% | > 1000 nM |
|  | 4-((1-methylpyrrol-2-yl)-carbonyl)-N-(4-(4-(3-(1,2,4-triazol-1-yl-propyl)piperidin-1-yl)-phenyl)-1-piperazinecarboxamide [Example 11] | 71.3% | 46 nM |
|  | 4-((((1-methylpyrrol-2-yl)-carbonyl)-1-piperazinyl)carbonyl)amino-4-phenylpiperidine-4-carboxylic acid [Example 2] | 53.7% | 86 nM |
| 62.2% | Cn1cccc1C(=O)N1CCN(C(=O)Nc2ccc(N3CCC(O)CC3)cc2)CC1 [Example 1, N-(4-(4-hydroxypiperidin-1-yl)-phenyl)-4-((1-methylpyrrol-2-yl)-carbonyl)-1-piperazinecarboxamide] |  | 58 nM |
| 61.5% | Cn1cccc1C(=O)N1CCN(C(=O)Nc2ccc(N3CCC(CN4CCOCC4)CC3)cc2)CC1 [Example 4, 4-((1-methylpyrrol-2-yl)-carbonyl)-N-(4-(4-morpholinomethylpiperidin-1-yl)-phenyl)-1-piperazinecarboxamide] |  |  |
| 55.5% | Cn1cccc1C(=O)N1CCN(C(=O)Nc2ccc(N3CCC(CCn4cncn4)C3)cc2)CC1 (centres unmarked) [Example 5, 4-((1-methylpyrrol-2-yl)-carbonyl)-N-(4-(3-(2-(1,2,4-triazol-1-yl)-ethyl)pyrrolidin-1-yl)-phenyl)-1-piperazinecarboxamide] |  |  |
| 68.3% | Cn1cccc1C(=O)N1CCN(C(=O)Nc2ccc(N3CCC(CCN4CCOCC4)CC3)cc2)CC1 [Example 6, 4-((1-methylpyrrol-2-yl)-carbonyl)-N-(4-(4-morpholinoethylpiperidin-1-yl)-phenyl)-1-piperazinecarboxamide] |  |  |
| 66.7% | Cn1cccc1C(=O)N1CCN(C(=O)Nc2ccc(N3CCC(CCn4ccnn4)CC3)cc2)CC1 [Example 7, 4-((1-methylpyrrol-2-yl)-carbonyl)-N-(4-(4-(2-(1,2,3-triazol-1-yl)-ethyl)piperidin-1-yl)-phenyl)-1-piperazinecarboxamide] |  |  |
| 58.9% | Cn1cccc1C(=O)N1CCN(C(=O)Nc2ccc(N3CCC(CCn4cncn4)CC3)cc2)CC1 [Example 8, 4-((1-methylpyrrol-2-yl)-carbonyl)-N-(4-(4-(2-(1,2,4-triazol-1-yl)-ethyl)piperidin-1-yl)-phenyl)-1-piperazinecarboxamide] |  | 62 nM |
| 54.8% | Cc1nc(C)n(CCC2CCN(c3ccc(NC(=O)N4CCN(C(=O)c5cccn5C)CC4)cc3)CC2)n1 [Example 9, 4-((1-methylpyrrol-2-yl)-carbonyl)-N-(4-(4-(2-(3,5-dimethyl-1,2,4-triazol-1-yl)-ethyl)piperidin-1-yl)-phenyl)-1-piperazinecarboxamide] |  |  |
| 74.3% | Cn1cccc1C(=O)N1CCN(C(=O)Nc2ccc(N3CCC(CCn4cccn4)CC3)cc2)CC1 [Example 10, 4-((1-methylpyrrol-2-yl)-carbonyl)-N-(4-(4-(2-(pyrazol-1-yl)-ethyl)piperidin-1-yl)-phenyl)-1-piperazinecarboxamide] |  |  |
| 72.7% | Cn1cccc1C(=O)N1CCN(C(=O)Nc2ccc(N3CCC(CCCn4ccnn4)CC3)cc2)CC1 [Example 12, 4-((1-methylpyrrol-2-yl)-carbonyl)-N-(4-(4-(3-(1,2,3-triazol-1-yl)-propyl)piperidin-1-yl)-phenyl)-1-piperazinecarboxamide] |  |  |
| 73.6% | Cn1cccc1C(=O)N1CCN(C(=O)Nc2ccc(N3CCC(C(=O)N4CCCCC4)CC3)cc2)CC1 [Example 14, 4-((1-methylpyrrol-2-yl)-carbonyl)-N-(4-(4-piperidin-1-yl-carbonylpiperidin-1-yl)-phenyl)-1-piperazinecarboxamide] |  |  |
| 61.3% | CN1CCN(C(=O)C2CCN(c3ccc(NC(=O)N4CCN(C(=O)c5cccn5C)CC4)cc3)CC2)CC1 [Example 15, 4-((1-methylpyrrol-2-yl)-carbonyl)-N-(4-(4-(4-methylpiperazin-1-yl-carbonyl)piperidin-1-yl)-phenyl)-1-piperazinecarboxamide] |  |  |
| 61.1% | Cn1cccc1C(=O)N1CCN(C(=O)Nc2ccc(N3CCC(C(=O)NCCN4CCOCC4)CC3)cc2)CC1 [Example 16, 4-((1-methylpyrrol-2-yl)-carbonyl)-N-(4-(4-(2-morpholinoethylcarbamoyl)piperidin-1-yl)-phenyl)-1-piperazinecarboxamide] |  |  |
| 61.7% | Cn1cccc1C(=O)N1CCN(C(=O)Nc2ccc(N3CCC(C(=O)NCc4cccnc4)CC3)cc2)CC1 [Example 17, 4-((1-methylpyrrol-2-yl)-carbonyl)-N-(4-(4-(pyridin-3-ylmethylcarbamoyl)piperidin-1-yl)-phenyl)-1-piperazinecarboxamide] |  |  |
|  | Cn1ccc(C(=O)N2CCN(C(=O)Nc3ccc(N4CCC(C(=O)N5CCOCC5)CC4)cc3)CC2)c1 [Reference Example 3, 4-((1-methylpyrrol-3-yl)-carbonyl)-N-(4-(4-morpholin-1-yl-carbonylpiperidin-1-yl)-phenyl)-1-piperazinecarboxamide] | −4.8% | > 1000 nM |
|  | O=C(Nc1ccc(N2CCC(C(=O)N3CCOCC3)CC2)cc1)N1CCN(C(=O)c2cccs2)CC1 [Reference Example 4, 4-((thiophen-2-yl)-carbonyl)-N-(4-(4-morpholin-1-yl-carbonylpiperidin-1-yl)-phenyl)-1-piperazinecarboxamide] | 18.0% | 340 nM |
|  | O=C(Nc1ccc(N2CCC(C(=O)N3CCOCC3)CC2)cc1)N1CCN(C(=O)c2ccsc2)CC1 [Reference Example 5, 4-((thiophen-3-yl)-carbonyl)-N-(4-(4-morpholin-1-yl-carbonylpiperidin-1-yl)-phenyl)-1-piperazinecarboxamide] | 9.4% | 732 nM |
|  | O=C(Nc1ccc(N2CCC(C(=O)N3CCOCC3)CC2)cc1)N1CCN(C(=O)c2ccco2)CC1 [Reference Example 6, 4-((furan-2-yl)-carbonyl)-N-(4-(4-morpholin-1-yl-carbonylpiperidin-1-yl)-phenyl)-1-piperazinecarboxamide] | −2.7% | > 1000 nM |
|  | O=C(Nc1ccc(N2CCC(C(=O)N3CCOCC3)CC2)cc1)N1CCN(C(=O)c2ccoc2)CC1 [Reference Example 7, 4-((furan-3-yl)-carbonyl)-N-(4-(4-morpholin-1-yl-carbonylpiperidin-1-yl)-phenyl)-1-piperazinecarboxamide] | −4.2% | > 1000 nM |
|  | O=C(Nc1ccc(N2CCC(C(=O)N3CCOCC3)CC2)cc1)N1CCN(C(=O)c2ccno2)CC1 [Reference Example 8, 4-((isoxazol-5-yl)-carbonyl)-N-(4-(4-morpholin-1-yl-carbonylpiperidin-1-yl)-phenyl)-1-piperazinecarboxamide] | −6.6% | > 1000 nM |
